PubChem BioAssay (NCI)
Several values for one entry are separate records, joined by “and”; a condition that tells them apart may be missing. Equal values may be shown once.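 Five compound concentrations were applied to cells in 96-well plates for 48 hours; endpoints were derived by simple linear interpolation of the resulting dose-response curve. Abbreviation: GI50, concentration required for 50% inhibition of growth. At the TGI there is no net growth.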

Key:
Assay in all cases: NCI tumour cell line growth inhibition, 48 h
SF-295 CNS = tested on: SF-295 CNS
HOP-92 NSCLC = tested on: HOP-92 NSCLC
HS 578T breast = tested on: HS 578T breast
A498 renal = tested on: A498 renal
ACHN renal = tested on: ACHN renal
SK-MEL-2 melanoma = tested on: SK-MEL-2 melanoma
HCT-15 colon = tested on: HCT-15 colon
M14 melanoma = tested on: M14 melanoma
SN12C renal = tested on: SN12C renal
NCI-H522 lung = tested on: NCI-H522 lung

Compound	GI50 (SF-295 CNS) [nM]	TGI (SF-295 CNS)	GI50 (HOP-92 NSCLC) [nM]	TGI (HOP-92 NSCLC)	GI50 (HS 578T breast) [µM]	TGI (HS 578T breast)	GI50 (A498 renal) [µM]	TGI (A498 renal)	GI50 (ACHN renal) [µM]	TGI (ACHN renal)	GI50 (SK-MEL-2 melanoma) [µM]	TGI (SK-MEL-2 melanoma)	GI50 (HCT-15 colon) [µM]	TGI (HCT-15 colon)	GI50 (M14 melanoma) [µM]	TGI (M14 melanoma)	GI50 (SN12C renal) [µM]	TGI (SN12C renal)	TGI (NCI-H522 lung)	GI50 (NCI-H522 lung) [nM]
Cn1cc(-c2ccc3nnc(C(F)(F)c4ccc5ncccc5c4)n3n2)cn1	3820	> 100 µM	10600	> 88.9 µM	34.2	> 100 µM	24.8	> 100 µM	32.8	> 100 µM	50.6	> 100 µM	73	> 100 µM	> 100	> 100 µM	35.4	> 100 µM		
CC(C)(N)C(=O)N[C@@H]1C(=O)N2[C@@H]1SC(C)(C)[C@@H]2C(=O)O		> 100 µM		> 100 µM		> 100 µM		> 100 µM		> 100 µM		> 100 µM		> 100 µM		> 100 µM		> 100 µM	> 100 µM	
CSc1nc(SC)c2c(C)cn(C3OC(C)C(O)C(O)C3O)c2n1 (centres undefined)		> 100 µM		83.4 µM		> 100 µM		74.4 µM		> 100 µM		> 100 µM		> 100 µM		> 100 µM		> 100 µM	> 100 µM	
NC(CSC1(c2ccc(Cl)cc2)c2ccccc2-c2ccccc21)C(=O)O (centres undefined)		37.7 µM		47.4 µM		45.6 µM		35 µM		50.2 µM		41.8 µM		47.3 µM		68.4 µM		41.4 µM	30.4 µM	
Cn1c(=O)c(-c2c(Cl)cccc2Cl)cc2cnc(Nc3ccc(I)cc3)nc21	147	1.41 µM	17.9	4.94 µM	< 0.01	0.235 µM	< 0.01	< 0.01 µM		0.712 µM	1.52	> 100 µM	2.87	9.42 µM		0.346 µM	0.505	2.37 µM	1.89 µM	457
Cc1cc2nc3c4cc([N+](=O)[O-])ccc4n(CCN(C)C)c3nc2cc1C	388	1.79 µM	648	13.3 µM	1.39	5.87 µM	0.452	1.74 µM	0.297	1.68 µM	1	3.03 µM	0.36	3.04 µM	0.467	1.99 µM	0.448	> 54.8 µM	4.94 µM	893
[Au+].c1c[n-]cn1.c1ccc([PH+](c2ccccc2)c2ccccc2)cc1	11800	26.6 µM	2360	4.79 µM	17.1	> 100 µM	17.4	34.9 µM	6.19	17.6 µM	2.53	8.06 µM	3.42	15.8 µM	2.34	6.73 µM	10.3	27.4 µM	2.93 µM	1190
NCCCCCCCCCn1c2c(c3ccccc3c1=O)C(=O)c1ccccc1-2	9670	20.8 µM	10100	21.1 µM	10.3	21.9 µM	7.74	16.4 µM	8.2	17 µM	15.5	> 50 µM	6.03	16.2 µM	9.67	18 µM	8.48	18.4 µM	24.4 µM	8830
COc1c(OC)c(OC)c(-c2cc(=O)c3c(OC)c(OC)c(OC)c(OC)c3o2)c(OC)c1OC		> 100 µM		44.9 µM		> 100 µM		89.1 µM		> 100 µM		> 100 µM		> 100 µM		> 100 µM		> 100 µM	33.8 µM	
O=C(NCCCl)NCc1ccccc1		> 100 µM		> 100 µM		> 100 µM		> 100 µM		> 100 µM		> 100 µM		> 100 µM				> 100 µM	> 100 µM	
COc1cc(/C=C2\CC3C4CCC5=CC(=O)CC[C@]5(C)C4CC[C@]3(C)C2=O)ccc1OCCN1CCCCC1 (some centres undefined)	2020	4.24 µM	1450	8.34 µM	4.79	23 µM	1.9	12.1 µM	3.84	13.1 µM	22	> 100 µM	3.9	16 µM	1.87	3.46 µM	2.79	9.56 µM	> 100 µM	8950
CCCCCCn1c2c(c3c(O)cccc31)C(=O)c1ccccc1-2	21000	44.8 µM	17600	33.2 µM	24.2	52.6 µM	18.9	33.2 µM	16.6	30.3 µM	18.9	37.9 µM	18.6	37 µM	15.7	30.2 µM	17.6	32 µM	35.9 µM	17200
CC/C(=C(/CC)c1ccc(O)cc1)c1ccc(O)cc1	2730	11.6 µM	5100	17.2 µM	4.17	32 µM	12.4	25.2 µM	6.07	18.3 µM	9.23	26.7 µM	4.79	20 µM	4.57	15.7 µM	5.9	28.6 µM	23 µM	5790
CC(=O)Nc1ccc(Cc2ccc3[nH]c(=O)cc(C)c3c2)cc1		> 100 µM		> 100 µM		> 100 µM		> 100 µM		> 100 µM		77.7 µM		> 100 µM		> 100 µM		> 100 µM	> 100 µM	
COc1ccc(Nc2ncccc2C(=O)NCc2cn(Cc3cccc(Oc4ccccc4)c3)nn2)c(OC)c1	552	22.2 µM	36100	> 100 µM	9.52	> 100 µM	1.33	13 µM	3.94	> 100 µM	5.03	> 100 µM	1.68	> 100 µM	1.37	> 100 µM	3.51	> 100 µM	6.46 µM	1440
COC1/C=C/OC2(C)Oc3c(C)c(O)c4c(O)c(c(C=NOC(c5ccccc5)c5ccccc5)c(O)c4c3C2=O)NC(=O)/C(C)=C/C=C/C(C)C(O)C(C)C(O)C(C)C(OC(C)=O)C1C (centres undefined)	1210	3.57 µM	972	2.74 µM	1.5	5.17 µM	1.18	4.6 µM	1.17	2.73 µM	1.05	2.54 µM	1.17	2.96 µM	1.18	2.82 µM	1.31	3.53 µM	3.97 µM	1180
COc1cccc(/C=C2\CCc3ccccc3C2=O)c1	9620	27.3 µM	13300	35.4 µM	3.33	17.9 µM	12.1	25.1 µM	10.2	25.3 µM	12.9	28.2 µM	10.5	49.4 µM	17	39.6 µM	15.8	40.2 µM	22.3 µM	4090
O=C(c1ccccc1)c1c2n(c3c1cc(O)c1ccccc13)CCN2	7110	20.8 µM	2630	9.36 µM	10.9	> 100 µM	18.3	35.4 µM	13.5	33.1 µM	3.02	8.55 µM	6.5	19.1 µM	7.09	19.3 µM	2	4.21 µM	4.03 µM	1960
O=C1Nc2c(ccc(Cl)c2Cl)/C1=C\c1cc(C(F)(F)F)cc(C(F)(F)F)c1	1920	8.02 µM	1440	7.42 µM	1.21	3.18 µM	5.59	13.6 µM	3.18	11.3 µM	4.11	10.9 µM	1.4	6.07 µM	5.06	11.3 µM	3.59	10.9 µM	6.47 µM	1540
CS(=O)(=O)c1ccc(-c2cnc(NCc3ccco3)n3cnnc23)cc1	> 100000	> 100 µM	21400	> 100 µM	> 100	> 100 µM	> 100	> 100 µM	> 100	> 100 µM	66.6	> 100 µM	> 100	> 100 µM	27	> 100 µM	> 100	> 100 µM	> 100 µM	> 100000
CNC(=O)c1cc(Oc2ccc3nc(NC(=O)Nc4cc(C(F)(F)F)cc(C(F)(F)F)c4)sc3c2)ccn1	1080	2.41 µM	301	0.949 µM	1.65	4.84 µM	1.02	2.46 µM	0.542	1.98 µM	1.05	3.13 µM	1.5	3.31 µM	1.5	3.22 µM	1.64	3.79 µM	2.28 µM	534
COc1ccc2c(c1)C(=O)c1c-2c(OCCN2CCCCC2)nc2ccc(OC)cc12	529	15.2 µM	2410	19.7 µM	4.5	22.8 µM	1.04	4.73 µM	0.425	3.26 µM	12.4	28.6 µM	0.54	2.63 µM	0.904	6.87 µM	0.429	10.1 µM	2.11 µM	523
O=C1c2ccccc2-c2ccccc2C1(Cl)Cl	1270	3 µM	1760	4.07 µM	2.5	9.41 µM	1.09	2.77 µM	1.72	3.53 µM	1.52	3.02 µM	1.81	4.25 µM	1.26	2.65 µM	1.45	2.98 µM		
O=C(O)c1c[nH]c2c(ccc3[nH]cc(C(=O)O)c(=O)c32)c1=O		> 100 µM		> 100 µM		> 100 µM		> 100 µM		> 100 µM		> 100 µM		> 100 µM		> 100 µM		> 100 µM	> 100 µM	
Cc1ccnc(NC(c2ccccc2)c2ccc3cccnc3c2O)c1 (centres undefined)	2420	16.3 µM	2110	8.95 µM	3.21	35.1 µM	2.08	9.55 µM	3.46	> 100 µM			3.35	> 100 µM	3.09	29.2 µM	5.27	> 100 µM		
Cc1cc(Cl)ccc1Nc1nc2c(s1)C(=O)c1ccccc1C2=O		24.2 µM		27.2 µM		5.79 µM		42 µM		10.3 µM		22.7 µM		3.68 µM		1.99 µM		3.33 µM	4.08 µM	
COc1ccc(/C=C/C(=O)c2ccccc2)cc1OC	14500	32.9 µM and 34 µM	26300	41 µM and 79.4 µM	42.3	65 µM and > 100 µM		38.6 µM and 32.2 µM		29.4 µM and 28.5 µM		32.2 µM and 35.3 µM	5.23	34.9 µM and 24.8 µM		30 µM and 29.6 µM	13.1	30.6 µM and 29 µM	31.5 µM and 19.6 µM	4180
CN1c2ccccc2S(=O)(=O)n2c(COc3ccccc3)nnc21		> 100 µM		> 100 µM		> 100 µM		> 100 µM		> 100 µM		> 100 µM		> 100 µM		> 100 µM		> 100 µM	> 100 µM	
O=C(O)C1C2CCC(O2)C1C(=O)NCc1cccnc1 (centres undefined)		> 100 µM				> 100 µM		> 100 µM		> 100 µM		> 100 µM		> 100 µM		> 100 µM		> 100 µM	> 100 µM	
